Results on eleven compounds are retold here after patent US10251931B2, “Cyclic peptides and methods using same” (priority 2014, dated 2019).

The target of test [1] is T1, HIV-1 gp120 (Human immunodeficiency virus type 1 group M subtype B, UniProt P35961).
T1 construct: Expression and Purification of Wild-Type gp120YU-2; made in house; host or cells: HEK 293F
The class given is binding. As for the experimental part: SPR competition binding assays were used to assess the structural elements required for cyclic hexapeptide binding to gp120. […] In an attempt to restore the lost contact, the length of the two linkers was changed (Linker 1 and Linker 2 in FIG. 12).
SPR experiments were performed on a Biacore 3000 optical biosensor (GE Healthcare). All experiments were carried out at 25° C. using standard PBS buffer pH=7.4 with 0.005% surfactant Tween. A CM5 sensor chip was derivatized by standard 1-ethyl-3-(3-dimethylaminopropyl) carbodiimide (EDC)/N-hydroxysuccinimide (NHS) chemistry, and coupling was done through ligand amine groups. Antibody 2B6R (α-human IL5R) was immobilized for negative control surfaces. For competition experiments, soluble four domain CD4 and 17b antibody were immobilized on the surface through standard EDC/NHS chemistry. For kinetic analyses, typically 2000-3000 RUs of protein reagents were immobilized on SPR chips, and analytes were passed over the surface at 50-100 μL/min. Surface regeneration was achieved by a 5 μL injection of 10 mM HCl solution at 100 μL/min. […] Regeneration of the surface was achieved by a single 10 second pulse of 1.3 M NaCl/35 mM NaOH and single 5-second pulse of 10 mM glycine, pH 1.5, for sCD4 and mAb 17b, respectively. All analyses were performed in triplicate.
The inhibition curve was converted into a calibration curve by the use of a fitting function. The fitting was done using the 4-parameter Equation (1) from BIAevaluation software,
The cyclic peptides of the invention were tested against HIV-1 gp120 by SPR competition assays as described elsewhere herein. A mixture of the cyclic peptide/gp120 solutions was passed over SPR chip immobilized with CD4 and 17b separately. The competition assay evaluated the ability of each peptide to inhibit the binding between gp120 and both soluble CD4 and 17b antibody, a surrogate for co-receptor.

Test [2] concerns HIV-1 Bal.01 pseudovirus. Briefly: Inhibition of HIV-1 infection against Bal.01 (HOS.T4.R5 cells, luciferase). The class given is cell-based.
In test [3] the test system is HIV-1 JR-FL pseudovirus. Briefly: Inhibition of HIV-1 infection against JR-FL (HOS.T4.R5 cells, luciferase). Format: cell-based.

“Also recorded” adds a separate entry of the source. Like-named read-outs stand apart in the source and are kept apart here. Starred links: 1 amine or outer side, 2 acyl side, 3 side chain; linkers in the order of their positions; H or OH if unused. Positions of bridges follow the written chain, without caps; N, C: chain ends. Non-standard residues stand in square brackets, D forms with d. Residues, ends and D or L forms follow the SMILES beside them. ξ: configuration not given here. Pro(cis-4-Trz(4-CH2CH2Ph)) = O=C(O)[C@@H]1C[C@H](n2cc(CCc3ccccc3)nn2)CN1; X4 = O=C([C@@H]1C[C@H](n2cc(C3C4CC5CC(C4)CC3C5)nn2)CN1[*:1])[*:2]; Ile(3ξ) = CCC(C)[C@H](N)C(=O)O; Orn = NCCC[C@H](N)C(=O)O; Dab = NCC[C@H](N)C(=O)O; ξD = NC(CC(=O)O)C(=O)O

Consider `CC[C@H](C)[C@@H]1NC(=O)[C@H](CC(N)=O)NC(=O)[C@H](CC(N)=O)NC(=O)[C@@H](N)CCC(=O)NCCCC[C@@H](C(N)=O)NC(=O)[C@H](Cc2c[nH]c3ccccc23)NC(=O)[C@@H]2C[C@H](n3cc(CCc4ccccc4)nn3)CN2C1=O` [AAR026, 2,2′-((3S,6S,15S,18S,21S,24S,28S,29aS)-3-((1H-indol-3-yl)methyl)-15-amino-24-((S)-sec-butyl)-6-carbamoyl-1,4,12,16,19,22,25-heptaoxo-28-(4-phenethyl-1H-1,2,3-triazol-1-yl)octacosahydro-1H-pyrrolo[2,1-f][1,4,7,10,13,16,22]heptaazacycloheptacosine-18,21-diyl)diacetamide] (H-ENNI[Pro(cis-4-Trz(4-CH2CH2Ph))]WK-NH2; lactam 1-7), for which the “Dual receptor site (CD4 and 17b) inhibition of gp120, in words” value in test [1] (SPR competition) is “retained the dual receptor site inhibitory signature of linear PTs; also recorded: dual inhibitors”.
Still for that read-out and setting: the result for `CCC(C)[C@@H]1NC(=O)[C@H](CC(N)=O)NC(=O)[C@@H](N)CC(=O)NCCCC[C@@H](C(N)=O)NC(=O)[C@H](Cc2c[nH]c3ccccc23)NC(=O)[C@@H]2C[C@H](n3cc(C4C5CC6CC(C5)CC4C6)nn3)CN2C1=O` (stereo partly drawn) [AAR029F, (3S,6S,14S,17S,20S,24S,25aS)-3-((1H-indol-3-yl)methyl)-24-(4-((1R,3S,5S,7S)-adamantan-2-yl)-1H-1,2,3-triazol-1-yl)-14-amino-17-(2-amino-2-oxoethyl)-20-(sec-butyl)-1,4,12,15,18,21-hexaoxotetracosahydro-1H-pyrrolo[2,1-f][1,4,7,10,13,18]hexaazacyclotricosine-6-carboxamide] (H-DN[Ile(3ξ)][X4]WK-NH2; lactam 1-6) reads “dual inhibitors”; that for `CC[C@H](C)[C@@H]1NC(=O)[C@H](CC(N)=O)NC(=O)[C@@H](N)CCC(=O)NCC[C@@H](C(N)=O)NC(=O)[C@H](Cc2c[nH]c3ccccc23)NC(=O)[C@@H]2C[C@H](n3cc(CCc4ccccc4)nn3)CN2C1=O` [AAR030, (3S,6S,13S,16S,19S,23S,24aS)-3-((1H-indol-3-yl)methyl)-13-amino-16-(2-amino-2-oxoethyl)-19-((S)-sec-butyl)-1,4,10,14,17,20-hexaoxo-23-(4-phenethyl-1H-1,2,3-triazol-1-yl)tetracosahydropyrrolo[1,2-g][1,4,7,10,13,17]hexaazacyclodocosine-6-carboxamide] (H-ENI[Pro(cis-4-Trz(4-CH2CH2Ph))]W[Dab]-NH2; lactam 1-6), “inactive”.
In the case of `CC[C@H](C)[C@@H]1NC(=O)[C@H](CC(N)=O)NC(=O)[C@@H](N)CC(=O)NCCC[C@@H](C(N)=O)NC(=O)[C@H](Cc2c[nH]c3ccccc23)NC(=O)[C@@H]2C[C@H](n3cc(CCc4ccccc4)nn3)CN2C1=O` [AAR031, (3S,6S,13S,16S,19S,23S,24aS)-3-((1H-indol-3-yl)methyl)-13-amino-16-(2-amino-2-oxoethyl)-19-((S)-sec-butyl)-1,4,11,14,17,20-hexaoxo-23-(4-phenethyl-1H-1,2,3-triazol-1-yl)tetracosahydropyrrolo[2,1-f][1,4,7,10,13,18]hexaazacyclodocosine-6-carboxamide] (H-DNI[Pro(cis-4-Trz(4-CH2CH2Ph))]W[Orn]-NH2; lactam 1-6), in test [1] (SPR competition), the “Dual receptor site (CD4 and 17b) inhibition of gp120, in words” value is on record as “dual inhibitors”; the “IC50 value in words” value was “micro molar”.
Turning to `CC[C@H](C)[C@@H]1NC(=O)[C@H](CC(N)=O)NC(=O)C(N)CC(=O)NCC[C@@H](C(N)=O)NC(=O)[C@H](Cc2c[nH]c3ccccc23)NC(=O)[C@@H]2C[C@H](n3cc(CCc4ccccc4)nn3)CN2C1=O` (stereo partly drawn) [AAR032, (3S,6S,15S,18S,22S,23aS)-3-((1H-indol-3-yl)methyl)-12-amino-15-(2-amino-2-oxoethyl)-18-((S)-sec-butyl)-1,4,10,13,16,19-hexaoxo-22-(4-phenethyl-1H-1,2,3-triazol-1-yl)docosahydro-1H-pyrrolo[1,2-g][1,4,7,10,13,17]hexaazacyclohenicosine-6-carboxamide] (H-[ξD]NI[Pro(cis-4-Trz(4-CH2CH2Ph))]W[Dab]-NH2; lactam 1-6), the “Dual receptor site (CD4 and 17b) inhibition of gp120, in words” value in test [1] (SPR competition) was “dual inhibitors”. In addition, in test [1] (two-carbon Linker 1 (Dab)), the “fold improvement vs AAR031” value is given as roughly 10 fold.
For “(3S,6S,12S,15S,19S,20aS)-3-((1H-indol-3-yl)methyl)-12-amino-15-((S)-sec-butyl)-19-(4-ferrocenyl-1H-1,2,3-triazol-1-yl)-1,4,10,13,16-pentaoxoicosahydropyrrolo [1,2-d][1,4,7,10,14]pentaazacyclooctadecine-6-carboxamide [AAR040]”, the “Dual receptor site (CD4 and 17b) inhibition of gp120, in words” value in test [1] (SPR competition) is listed as “dual inhibitors”.
As to “(3S,6S,14S,17S,20S,24S,25aS)-3-((1H-indol-3-yl)methyl)-14-amino-17-(2-amino-2-oxoethyl)-20-butyl-24-(4-ferrocenyl-1H-1,2,3-triazol-1-yl)-1,4,12,15,18,21-hexaoxotetracosahydro-1H-pyrrolo[2,1-f][1,4,7,10,13,18]hexaazacyclotricosine-6-carboxamide [AAR036]”, the “Dual receptor site (CD4 and 17b) inhibition of gp120, in words” value in test [1] (SPR competition) is “dual inhibitors”.
Regarding “(3S,6S,14S,17S,20S,24S,25aS)-3-((1H-indol-3-yl)methyl)-14-amino-17-(2-amino-2-oxoethyl)-20-cyclohexyl-24-(4-ferrocenyl-1H-1,2,3-triazol-1-yl)-1,4,12,15,18,21-hexaoxotetracosahydro-1H-pyrrolo[2,1-f][1,4,7,10,13,18]hexaazacyclotricosine-6-carboxamide [AAR029b-Chg]”, the “Infection inhibition against Bal.01, in words” value in test [2] was “inhibiting activity”.
In the case of “(3S,6S,14S,17S,20S,24S,25aS)-3-((1H-indol-3-yl)methyl)-14-amino-17-(2-amino-2-oxoethyl)-20-cyclopropyl-24-(4-ferrocenyl-1H-1,2,3-triazol-1-yl)-1,4,12,15,18,21-hexaoxotetracosahydro-1H-pyrrolo[2,1-f][1,4,7,10,13,18]hexaazacyclotricosine-6-carboxamide [AAR042]”, in test [1] (SPR competition), the “Dual receptor site (CD4 and 17b) inhibition of gp120, in words” value is listed as “dual inhibitors”.
In the case of “(3S,6S,14S,17S,20S,24S,25aS)-14-amino-17-(2-amino-2-oxoethyl)-3-(benzo[b]thiophen-3-ylmethyl)-20-(sec-butyl)-24-(4ferocenyl-1H-1,2,3-triazol-1-yl)-1,4,12,15,18,21-hexaoxotetracosahydro-1H-pyrrolo[2,1-f][1,4,7,10,13,18]hexaazacyclotricosine-6-carboxamide [AAR029E]”, the “Dual receptor site (CD4 and 17b) inhibition of gp120, in words” value in test [1] is on record as “dual inhibitors”. In test [2], the “Infection inhibition against Bal.01, in words” value is “inhibiting activity”.
In the case of “(3S,6S,15S,18S,21S,25S,26aS)-3-((1H-indol-3-yl)methyl)-18-(2-amino-2-oxoethyl)-15-((2S,3S)-2-amino-3-methylpentanamido)-21-((S)-sec-butyl)-25-(4-ferrocenyl-1H-1,2,3-triazol-1-yl)-1,4,12,16,19,22-hexaoxohexacosahydropyrrolo[2,1-f][1,4,7,10,13,19]hexaazacyclotetracosine-6-carboxamide [AAR024b]”, the “Dual receptor site (CD4 and 17b) inhibition of gp120, in words” value in test [1] (SPR competition) is “enhanced dual receptor site antagonizing activities; also recorded: dual inhibitors”. Further, the “Infection inhibition against Bal.01, in words” value in test [2] was “inhibiting activity”. For the same compound, in test [3], the “Infection inhibition against JR-FL, in words” value is listed as “inhibiting activity”.
